Reference: ChEMBL document CHEMBL4130565, “Consequences of Depsipeptide Substitution on the ClpP Activation Activity of Antibacterial Acyldepsipeptides” (ACS Med Chem Lett, 2017)
“And” between values parts separate entries of the source, which are not always exact repeats. Identical values can stand only once. Where a SMILES comes first, the peptide text is derived from it. Bridges are numbered along the chain shown (N, C = ends). [ ]: non-standard residue; d: D form. The star is where a group is joined. Phe(3,5-F2) = N[C@@H](Cc1cc(F)cc(F)c1)C(=O)O; Heptenoyl(2E) = CCCC/C=C/C(=O)*; NMeA = CN[C@@H](C)C(=O)O; Dap = NC[C@H](N)C(=O)O

How the values were obtained:
Bacillus subtilis = assay: Antibacterial activity against Bacillus subtilis ATCC 6051 after 16 hrs by microdilution method; assay type: functional; settings: ATCC 6051, 16 h
[1] = Half life in CD3OD assessed as hydrogen-deuterium exchange by 1H-NMR analysis; assay type: physicochemical
[2] = biological target: ATP-dependent Clp protease proteolytic subunit (Bacillus subtilis (strain 168)) (UniProt P80244); assay: Activation of Bacillus subtilis ClpP expressed in Escherichia coli BL21(DE3) using Abz-DFAPKMALVPYNO2 as substrate pretreated for 15 mins followed by substrate addition measured every 30 mins for 2 hrs by fluorescence assay
[3] = biological target: ATP-dependent Clp protease proteolytic subunit (Bacillus subtilis (strain 168)) (UniProt P80244); assay: Stabilization of Bacillus subtilis ClpP assessed as change in melting temperature at 50 uM after 30 mins by SYPRO orange protein gel staining based FRET analysis

ATP-dependent Clp protease proteolytic subunit (Bacillus subtilis (strain 168)), sequence (P80244 whole entry, looked up): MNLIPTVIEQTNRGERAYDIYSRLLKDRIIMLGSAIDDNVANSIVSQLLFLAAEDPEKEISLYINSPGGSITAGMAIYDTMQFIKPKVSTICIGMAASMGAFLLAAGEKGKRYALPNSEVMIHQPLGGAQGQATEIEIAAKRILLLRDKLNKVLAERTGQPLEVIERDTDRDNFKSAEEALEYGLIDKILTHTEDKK

SMILES | MIC (Bacillus subtilis) | half-life [1] [min] | Kapp [2] [µM] | ΔTm [3] [°C]
CCCC/C=C/C(=O)N[C@@H](Cc1cc(F)cc(F)c1)C(=O)N[C@H]1CNC(=O)[C@@H]2CCCN2C(=O)[C@H](C)NC(=O)[C@H](C)N(C)C(=O)[C@@H]2CCCN2C1=O ({Heptenoyl(2E)}-[Phe(3,5-F2)][Dap]P[NMeA]AP; lactam 2-C) | 6.25 µM and 4.6 µg/mL | < 4 | 0.085 | 22.8
CCCC/C=C/C(=O)N[C@@H](Cc1cc(F)cc(F)c1)C(=O)N[C@H]1COC(=O)[C@@H]2CCCN2C(=O)[C@H](C)NC(=O)[C@H](C)N(C)C(=O)[C@@H]2CCCN2C1=O ({Heptenoyl(2E)}-[Phe(3,5-F2)]SP[NMeA]AP; ester 2-C) | 0.037 µM and 0.027 µg/mL | 38 | 0.037 | 29.1
CCCC/C=C/C(=O)N[C@@H](Cc1cc(F)cc(F)c1)C(=O)N[C@H]1CN(C)C(=O)[C@@H]2CCCN2C(=O)[C@H](C)NC(=O)[C@H](C)N(C)C(=O)[C@@H]2CCCN2C1=O | > 25 µM and > 18.6 µg/mL | < 4 | 4.39 | 12.7
